Reference: US20100092534A1, “Combination Local Delivery Using a Stent” (Medtronic Vascular, Inc., priority 2008, published 2010)

How the values were obtained:
tissue factor (TF) = assay: Relative gene expression of TF in stented porcine vessels; format: in vivo; conditions: local delivery from a vascular stent; several days after stenting; FIG. 1B
Source text: FIG. 1: Relative gene expression of (A) MCP-1 and (B) TF in porcine vessels that were stented with zotarolimus coated stents compared with uncoated stents and stents coated with fluocinolone. The drug doses are indicated in ug/mm^2. As such, delivery of zotarolimus locally from a vascular stent increases the expression of TF in stented vessels. The increased expression can be seen several days after the stenting procedure was preformed (FIG. 1B). In one embodiment, a dose titration experiment can be conducted to determine the optimal dosage for combination of zotarolimus (e.g. anti-proliferative drug) and fluocinolone (e.g. anti-inflammatory drug). At an optimal dose zotarolimus can inhibit neointimal hyperplasia via inhibition of smooth muscle cells proliferation, while maintaining low levels of MCP-1 and TF due to the inhibitory effect of fluocinolone. The evaluation of MCP-1 and TF can be performed by conducting pre-clinical, porcine study using stents loaded with escalating doses of at least zotarolimus or in combination with escalating dosages of fluocinolone and evaluating the expression of MCP-1 and TF in the vessels stented with these stents. […] The stented vessels can be excised 7 days post stenting and the expression of TF and MCP-1 can be evaluated via real time-PCR using porcine primers and probes, allowing the quantative measurement at transcriptional level.

[1] = test system: monocyte chemoattractant protein-1 (MCP-1); assay: Relative gene expression of MCP-1 (mRNA) in stented porcine vessels; format: in vivo; conditions: local delivery from a vascular stent; 7 days after stenting; compared to a bare metal stent; measured on mRNA; FIG. 1A
Source text: FIG. 1: Relative gene expression of (A) MCP-1 and (B) TF in porcine vessels that were stented with zotarolimus coated stents compared with uncoated stents and stents coated with fluocinolone. The drug doses are indicated in ug/mm^2. FIG. 2: Relative gene expression of MCP-1 in porcine vessels that were stented with stents coated with zotarolimus alone compared to stents coated with zotarolimus combined with fluocinolone or fluocinolone alone. The drug doses are indicated in ug/mm^2. […] Furthermore, following stent placement, MCP-1 levels in plasma increase after several days and are more likely to be elevated at follow-up 6 months later in patients who have restenosis. In one embodiment, a dose titration experiment can be conducted to determine the optimal dosage for combination of zotarolimus (e.g. anti-proliferative drug) and fluocinolone (e.g. anti-inflammatory drug). At an optimal dose zotarolimus can inhibit neointimal hyperplasia via inhibition of smooth muscle cells proliferation, while maintaining low levels of MCP-1 and TF due to the inhibitory effect of fluocinolone. […] The stented vessels can be excised 7 days post stenting and the expression of TF and MCP-1 can be evaluated via real time-PCR using porcine primers and probes, allowing the quantative measurement at transcriptional level.

[2] = Solubility in ethanol (coating solvent); format: physicochemical
Source text: In the following Example, ethanol is chosen as the solvent of choice. The coating to be applied to the stent is a bioactive agent combination, consisting of a mTOR inhibitor and a glucocorticoid. The mTOR inhibitor is zotarolimus. The glucocorticoid is fluocinolone. […] Persons having ordinary skill in the art of polymer chemistry can easily pair the appropriate solvent system to the polymer-bioactive agent(s) combination and achieve optimum results with no more than routine experimentation.

CO[C@H]1C[C@@H]2CC[C@@H](C)[C@@](O)(O2)C(=O)C(=O)N2CCCC[C@H]2C(=O)O[C@H]([C@H](C)C[C@@H]2CC[C@H](n3cnnn3)[C@H](OC)C2)CC(=O)[C@H](C)/C=C(\C)[C@@H](O)[C@@H](OC)C(=O)[C@H](C)C[C@H](C)/C=C/C=C/C=C/1C [zotarolimus]
expression of TF in stented vessels (tissue factor (TF)): increases
expression of monocyte chemoattractant protein-1 (MCP-1) in stented vessels [1]: increased
solubility in ethanol [2]: freely soluble

CC1(C)O[C@@H]2C[C@H]3[C@@H]4C[C@H](F)C5=CC(=O)C=C[C@]5(C)[C@@]4(F)[C@@H](O)C[C@]3(C)[C@]2(C(=O)CO)O1 [fluocinolone]
solubility in ethanol [2]: freely soluble
